{"source": "paper PMC7577125", "about": "(Antimicrobial Agents and Chemotherapy, 2020)", "key": {"HBV Cp T109M": {"system": "HBV Cp T109M", "experiment": "microbe, parasite or virus in culture", "format": "cell-based, Hepatitis B virus"}, "CYP3A": {"target": "CYP3A (Homo sapiens, UniProt P08684)", "sequence (P08684 2-503)": "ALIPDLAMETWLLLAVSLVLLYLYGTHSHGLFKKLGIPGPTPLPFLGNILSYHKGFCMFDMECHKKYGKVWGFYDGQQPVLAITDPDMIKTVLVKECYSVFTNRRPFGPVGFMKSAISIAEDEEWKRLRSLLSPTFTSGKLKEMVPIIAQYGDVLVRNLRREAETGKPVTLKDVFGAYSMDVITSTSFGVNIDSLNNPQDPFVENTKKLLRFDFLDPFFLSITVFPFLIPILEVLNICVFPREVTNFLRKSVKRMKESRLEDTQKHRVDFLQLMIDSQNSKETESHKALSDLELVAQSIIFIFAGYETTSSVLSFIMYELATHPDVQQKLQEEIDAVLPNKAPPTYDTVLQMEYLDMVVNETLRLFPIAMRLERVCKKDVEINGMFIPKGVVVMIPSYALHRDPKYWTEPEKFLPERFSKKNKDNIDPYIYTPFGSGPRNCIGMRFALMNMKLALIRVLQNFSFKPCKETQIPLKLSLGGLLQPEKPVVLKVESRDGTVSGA", "experiment": "CYP inhibition in human liver microsomes, 3A"}, "[1]": {"target": "pregnane X receptor (PXR) (Homo sapiens, UniProt O75469)", "sequence (O75469 whole entry)": "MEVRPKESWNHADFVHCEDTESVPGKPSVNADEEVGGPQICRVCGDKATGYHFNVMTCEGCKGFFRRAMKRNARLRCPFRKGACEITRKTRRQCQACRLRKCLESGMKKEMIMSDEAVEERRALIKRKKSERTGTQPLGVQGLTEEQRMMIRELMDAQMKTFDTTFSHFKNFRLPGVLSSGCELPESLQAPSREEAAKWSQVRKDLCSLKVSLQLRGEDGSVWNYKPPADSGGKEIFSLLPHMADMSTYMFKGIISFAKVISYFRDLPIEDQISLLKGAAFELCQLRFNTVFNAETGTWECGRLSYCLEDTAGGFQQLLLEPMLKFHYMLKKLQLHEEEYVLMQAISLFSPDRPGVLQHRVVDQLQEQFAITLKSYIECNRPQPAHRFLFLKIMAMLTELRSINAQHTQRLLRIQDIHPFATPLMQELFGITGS", "experiment": "PXR activation / CYP3A4 induction in DPX2 cells", "format": "in vitro ADME", "conditions": "24 h", "procedure": "The determination of CYP induction potential was conducted using CPX2 cells that harbor the human PXR gene and a luciferase reporter gene linked to two promoters identified in the human 3A4 gene."}, "HBV [2]": {"system": "HBV", "experiment": "Dose response of ETV and ABI-H0731 alone and in combination in induced HepAD38 cells", "format": "cell-based, Hepatitis B virus", "protocol": "Viral replication was evaluated by quantifying the levels of total HBV DNA in the cells by qPCR. […] In both cases, the data are plotted as a function of each drug’s concentration relative to its VR EC50."}, "HBV genotype C": {"system": "HBV genotype C", "experiment": "microbe, parasite or virus in culture", "format": "cell-based", "conditions": "Hepatitis B virus, read-out: Mean antiviral EC50"}, "[3]": {"conditions": "human, rat, cynomolgus monkey", "protocol": "In vitro intrinsic clearance (CLint) was determined as follows. […] The calculated CLint was determined from the relationship CLint = k × (volume of incubation in ml/mg microsomal protein) × (mg protein in liver/g liver weight) × (g liver weight/kg body weight). The values for liver weights, body weights, as well as hepatic blood flows (QH) across species were obtained from data reported previously by Davies and Morris ([28]). Values for liver microsome protein/liver weight for mouse, rat, dog, and monkey were […] ([27]), and that for human was 33 mg/g. The calculation used for the prediction of hepatic clearance (CLpred) is CLpred = (QH × CLint)/(QH + CLint)."}, "HBV Cp T33N": {"system": "HBV Cp T33N", "experiment": "microbe, parasite or virus in culture", "format": "cell-based, Hepatitis B virus"}, "HBV Cp T109I": {"system": "HBV Cp T109I", "experiment": "microbe, parasite or virus in culture", "format": "cell-based, Hepatitis B virus"}, "[4]": {"system": "Huh7, HepG2, HeLa H1A, HEK293, NCI-H226, MOLT-4, PBMC"}, "HBV [5]": {"system": "HBV", "experiment": "HBV infection of HepG2-NTCP cells", "format": "cell-based", "conditions": "Hepatitis B virus"}, "[6]": {"conditions": "in vivo"}, "in vitro": {"experiment": "in vitro", "conditions": "rat, plasma"}, "HBV [7]": {"system": "HBV", "experiment": "HBV RNA/DNA analyses in induced HepAD38 cells (Northern/Southern blot)", "format": "cell-based, Hepatitis B virus", "conditions": "for activity at 2 µM: Hepatitis B virus, HePAD38"}, "HBV [8]": {"system": "HBV", "experiment": "De novo infection models (HepG2-NTCP and PHH), summary", "format": "cell-based, Hepatitis B virus", "conditions": "Hepatitis B virus; range over two de novo infection models; read-out: EC50, suppression of cccDNA formation"}, "HBV [9]": {"system": "HBV", "experiment": "HBV DNA replication in cell culture systems (HepAD38, HepG2-NTCP, PHHs), summary", "conditions": "Hepatitis B virus, HePAD38, read-out: EC50, inhibition of HBV DNA replication", "source_text": "The first is an HBV-inducible cell line (HepAD38) that bears a single “1.1 copy” of the HBV genome (genotype D, subtype ayw) under the control of a cytomegalovirus (CMV) tetracycline (Tet)-off promoter ([13]), and the second utilizes HBV infection of either a HepG2-derived cell line stably expressing the HBV entry receptor sodium taurocholate cotransporting polypeptide (NTCP) (HepG2-NTCP) or primary human hepatocytes (PHHs). The primary marker measured for inhibition of HBV replication in the cell culture systems is viral DNA.\nHepAD38 cells were trypsinized and then washed three times with phosphate-buffered saline (PBS) to remove traces of Tet. Cells were seeded into 96-well plates in assay medium (DMEM–F-12 medium with 2% Tet-free FBS) and treated with compounds. Supernatants and cells were harvested at 5 days postinduction.\nHepG2-NCTP cells were infected with purified HepAD38 virus at a multiplicity of infection (MOI) of 50 in infection medium (DMEM, 5% FBS, 2% DMSO, 5% PEG 8000). Following infection, HepG2-NTCP cells were washed twice and switched to HepG2-NTCP treatment medium (DMEM, 5% FBS). PHHs were infected with HBV at an MOI of 50 in infection medium and grown in PHH maintenance medium for the duration of the experiment. Compounds were added after infection. […] Intracellular HBV DNA and pgRNA were measured by branch DNA (bDNA) assays (Thermo Fisher)."}, "HBV Cp Y38C": {"system": "HBV Cp Y38C", "experiment": "microbe, parasite or virus in culture", "format": "cell-based, Hepatitis B virus"}, "HBV genotype B": {"system": "HBV genotype B", "experiment": "microbe, parasite or virus in culture", "format": "cell-based", "conditions": "Hepatitis B virus, read-out: Mean antiviral EC50"}, "HBV Cp I105T": {"system": "HBV Cp I105T", "experiment": "microbe, parasite or virus in culture", "format": "cell-based, Hepatitis B virus"}, "HBV genotype D": {"system": "HBV genotype D", "experiment": "microbe, parasite or virus in culture", "format": "cell-based", "conditions": "Hepatitis B virus, read-out: Mean antiviral EC50"}, "HBV Cp P25A": {"system": "HBV Cp P25A", "experiment": "microbe, parasite or virus in culture", "format": "cell-based, Hepatitis B virus"}, "CYP2D6": {"target": "T1, CYP2D6 (Homo sapiens, UniProt P10635)", "T1 construct": "in human liver microsomes; from tissue; host or cells: human liver microsomes", "experiment": "CYP inhibition in human liver microsomes, 2D6", "format": "in vitro ADME", "conditions": "0.1–100 μM"}, "HBV Cp Y118F": {"system": "HBV Cp Y118F", "experiment": "microbe, parasite or virus in culture", "format": "cell-based, Hepatitis B virus"}, "HBV [10]": {"system": "HBV", "experiment": "HBV infection of primary human hepatocytes (PHHs)", "format": "cell-based", "conditions": "Hepatitis B virus, Hepatocyte, PHH"}, "HBV Cp Wild type": {"system": "HBV Cp Wild type", "experiment": "microbe, parasite or virus in culture", "format": "cell-based, Hepatitis B virus"}, "[11]": {"system": "HBV genotypes A, B, C, and D", "experiment": "microbe, parasite or virus in culture", "format": "cell-based", "conditions": "Hepatitis B virus, read-out: VR EC50s"}, "[12]": {"conditions": "Hepatitis B virus, Huh-7, read-out: Mean EC50"}, "[13]": {"conditions": "total intracellular viral DNA, read-out: Mean EC50, viral DNA"}}, "note": "Read-outs that look alike come from different tables or passages of the source."}
{"compound": "O=C(NCc1cnc(C(F)(F)F)s1)c1ccc2c(c1)NC(=O)c1ccccc1S2(=O)=O", "note": "[ABI-H0731]", "values": [{"measurement": "EC50", "setting": "HBV Cp T109M; [12]", "value": "> 10", "unit": "µM"}, {"measurement": "Fold shift", "setting": "HBV Cp T109M; T109M vs wild type", "value": ">68", "unit": "fold"}, {"measurement": "IC50", "setting": "CYP3A; probe midazolam", "value": 82.3, "unit": "µM"}, {"measurement": "IC50", "setting": "CYP3A; probe test (so in the source)", "value": 46.2, "unit": "µM"}, {"measurement": "PXR activation activity, % of the control activity", "setting": "[1]; 10 μM", "value": 29, "unit": "%"}, {"measurement": "PXR activation activity, % of the control activity", "setting": "[1]; 40 μM", "value": 68, "unit": "%"}, {"measurement": "HBV DNA levels", "setting": "HBV [2]; 60× VR EC50 (10 μM ABI-H0731), control 2.2 × 10^6", "value": "2.1 × 10^3 copies/μl"}, {"measurement": "inhibition of HBV DNA replication", "setting": "HBV [2]; 60× VR EC50 (10 μM)", "value": "~3", "unit": "logs"}, {"measurement": "inhibition at 1.7 µM", "setting": "HBV [2]; Hepatitis B virus, HePAD38, 96 h, read-out: inhibition of HBV replication", "value": 98, "unit": "%"}, {"measurement": "EC50", "setting": "HBV genotype C", "value": "0.0882 ± 0.027", "unit": "µM"}, {"measurement": "CLpred as % of liver blood flow", "setting": "[3]; mouse, 0.5 μM", "value": "12-21%"}, {"measurement": "CLpred", "setting": "[3]; 1 μM", "value": "2.3 to 21", "unit": "mL/min/kg"}, {"measurement": "CLpred as % of liver blood flow", "setting": "[3]; 1 μM", "value": "11-32%"}, {"measurement": "EC50", "setting": "HBV Cp T33N; [12]", "value": 3.06, "unit": "µM"}, {"measurement": "Fold shift", "setting": "HBV Cp T33N; T33N vs wild type", "value": 21, "unit": "fold"}, {"measurement": "EC50", "setting": "HBV Cp T109I; [12]", "value": "> 10", "unit": "µM"}, {"measurement": "Fold shift", "setting": "HBV Cp T109I; T109I vs wild type", "value": ">68", "unit": "fold"}, {"measurement": "CC50 relative to VR EC50", "setting": "[4]", "value": "> 50", "unit": "fold"}, {"measurement": "EC50", "setting": "HBV [5]; read-out: Mean EC50, HBeAg", "value": 4.95, "unit": "µM"}, {"measurement": "EC50", "setting": "HBV [5]; read-out: Mean EC50, HBsAg", "value": 7.3, "unit": "µM"}, {"measurement": "EC50", "setting": "HBV [5]; read-out: Mean EC50, pgRNA", "value": 2.68, "unit": "µM"}, {"measurement": "EC50", "setting": "HBV [5]; [13]", "value": "0.307 ± 0.041", "unit": "µM"}, {"measurement": "target organ or dose-limiting toxicities", "setting": "[6]", "value": "no specific target organ or dose-limiting toxicities"}, {"measurement": "fraction unbound at 6 h", "setting": "in vitro", "value": "0.02 to 0.052"}, {"measurement": "Levels of encapsidated pgRNA by Northern blotting", "setting": "HBV [7]; HepAD38, 10-fold over VR EC50", "value": "virtually undetectable"}, {"measurement": "rcDNA detection by Southern blot", "setting": "HBV [7]; HepAD38, 10-fold over VR EC50", "value": "could not be detected"}, {"measurement": "activity at 2 µM", "setting": "HBV [7]; read-out: Capsid DNA % of Control", "value": 10, "unit": "%"}, {"measurement": "activity at 2 µM", "setting": "HBV [7]; read-out: DNA % of Control (extracted HBV DNA replication intermediates)", "value": 1, "unit": "%"}, {"measurement": "activity at 2 µM", "setting": "HBV [7]; read-out: Encapsidated pgRNA % of Control", "value": 4, "unit": "%"}, {"measurement": "EC50", "setting": "HBV [8]", "value": "1.84 to 7.3", "unit": "µM"}, {"measurement": "EC50", "setting": "HBV [9]", "value": "0.173 to 0.307", "unit": "µM"}, {"measurement": "EC50", "setting": "HBV Cp Y38C; [12]", "value": "0.224 ± 0.05", "unit": "µM"}, {"measurement": "Fold shift", "setting": "HBV Cp Y38C; Y38C vs wild type", "value": 1.5, "unit": "fold"}, {"measurement": "EC50", "setting": "HBV genotype B", "value": "0.0855 ± 0.0109", "unit": "µM"}, {"measurement": "EC50", "setting": "HBV Cp I105T; [12]", "value": "0.324 ± 0.02", "unit": "µM"}, {"measurement": "Fold shift", "setting": "HBV Cp I105T; I105T vs wild type", "value": 2.2, "unit": "fold"}, {"measurement": "EC50", "setting": "HBV genotype D", "value": "0.142 ± 0.048", "unit": "µM"}, {"measurement": "EC50", "setting": "HBV Cp P25A; [12]", "value": "0.169 ± 0.041", "unit": "µM"}, {"measurement": "Fold shift", "setting": "HBV Cp P25A; P25A vs wild type", "value": 1.2, "unit": "fold"}, {"measurement": "IC50", "setting": "CYP2D6", "value": 29.6, "unit": "µM"}, {"measurement": "EC50", "setting": "HBV Cp Y118F; [12]", "value": 2.07, "unit": "µM"}, {"measurement": "Fold shift", "setting": "HBV Cp Y118F; Y118F vs wild type", "value": 14, "unit": "fold"}, {"measurement": "EC50", "setting": "HBV [10]; read-out: Mean EC50, HBeAg", "value": 2.21, "unit": "µM"}, {"measurement": "EC50", "setting": "HBV [10]; read-out: Mean EC50, HBsAg", "value": 3, "unit": "µM"}, {"measurement": "EC50", "setting": "HBV [10]; read-out: Mean EC50, pgRNA", "value": 1.84, "unit": "µM"}, {"measurement": "EC50", "setting": "HBV [10]; [13]", "value": "0.154 ± 0.018", "unit": "µM"}, {"measurement": "EC50", "setting": "HBV Cp Wild type; [12]", "value": "0.146 ± 0.021", "unit": "µM"}, {"measurement": "Fold shift", "setting": "HBV Cp Wild type; Wild type", "value": 1, "unit": "fold"}, {"measurement": "EC50", "setting": "[11]", "value": "0.086 to 0.142", "unit": "µM"}]}
